Legend:
Type in all cases: functional
UACC-62 [1] = assay: Cytotoxicity against human UACC62 cells assessed as cell growth at 10^-7 M after 48 hrs by SRB assay; settings: UACC-62, 48 h, read-out: Activity
HOP-62 [2] = assay: Cytotoxicity against human HOP62 cells after 48 hrs by SRB assay; settings: HOP-62, 48 h
MDA-MB-468 = assay: Cytotoxicity against human MDA-MB-468 cells assessed as cell growth at 10^-4 M after 48 hrs by SRB assay; settings: MDA-MB-468, 48 h, read-out: Activity
BT-549 = assay: Cytotoxicity against human BT549 cells assessed as cell growth at 10^-4 M after 48 hrs by SRB assay; settings: BT-549, 48 h, read-out: Activity
MDA-MB-231 = assay: Cytotoxicity against human MDA-MB-231 cells assessed as cell growth at 10^-4 M after 48 hrs by SRB assay; settings: MDA-MB-231, 48 h, read-out: Activity
DU-145 = assay: Cytotoxicity against human DU145 cells assessed as cell growth at 10^-4 M after 48 hrs by SRB assay; settings: DU-145, 48 h, read-out: Activity
MDA-MB-435 = assay: Cytotoxicity against human MDA-MB-435 cells assessed as cell growth at 10^-7 M after 48 hrs by SRB assay; settings: MDA-MB-435, 48 h, read-out: Activity
HCT-116 [3] = assay: Cytotoxicity against human HCT116 cells assessed as cell growth at 10^-7 M after 48 hrs by SRB assay; settings: HCT-116, 48 h, read-out: Activity
HL-60(TB) = assay: Cytotoxicity against human HL-60(TB) cells assessed as cell growth at 10^-7 M after 48 hrs by SRB assay; settings: HL-60, 48 h, read-out: Activity
[4] = Cytotoxicity against human Hs578T cells assessed as cell growth at 10^-8 M after 48 hrs by SRB assay; settings: Hs-578T, read-out: Activity
SNB-19 = assay: Cytotoxicity against human SNB19 cells assessed as cell growth at 10^-4 M after 48 hrs by SRB assay; settings: SNB-19, 48 h, read-out: Activity
HCT-116 [5] = assay: Cytotoxicity against human HCT116 cells assessed as cell growth at 10^-4 M after 48 hrs by SRB assay; settings: HCT-116, 48 h, read-out: Activity
NCI-H460 [6] = assay: Cytotoxicity against human NCI-H460 cells assessed as cell growth at 10^-4 M after 48 hrs by SRB assay; settings: NCI-H460, 48 h, read-out: Activity
HOP-62 [7] = assay: Cytotoxicity against human HOP62 cells assessed as cell growth at 10^-4 M after 48 hrs by SRB assay; settings: HOP-62, 48 h, read-out: Activity
MOLT-4 = assay: Cytotoxicity against human MOLT4 cells assessed as cell growth at 10^-4 M after 48 hrs by SRB assay; settings: MOLT-4, 48 h, read-out: Activity
786-0 [8] = assay: Cytotoxicity against human 786-0 cells assessed as cell growth at 10^-8 M after 48 hrs by SRB assay; settings: 786-0, 48 h, read-out: Activity
SK-OV-3 = assay: Cytotoxicity against human SKOV3 cells assessed as cell growth at 10^-8 M after 48 hrs by SRB assay; settings: SK-OV-3, 48 h, read-out: Activity
SK-MEL-28 = assay: Cytotoxicity against human SK-MEL-28 cells assessed as cell growth at 10^-8 M after 48 hrs by SRB assay; settings: SK-MEL-28, 48 h, read-out: Activity
NCI-H23 = assay: Cytotoxicity against human NCI-H23 cells assessed as cell growth at 10^-8 M after 48 hrs by SRB assay; settings: NCI-H23, 48 h, read-out: Activity
SR = assay: Cytotoxicity against human SR cells assessed as cell growth at 10^-8 M after 48 hrs by SRB assay; settings: read-out: Activity
[9] = Cytotoxicity against human UO31 cells after 48 hrs by SRB assay; settings: UO-31, 48 h
OVCAR-8 = assay: Cytotoxicity against human OVCAR8 cells after 48 hrs by SRB assay; settings: OVCAR-8, 48 h
UACC-62 [10] = assay: Cytotoxicity against human UACC62 cells after 48 hrs by SRB assay; settings: UACC-62, 48 h
SF-268 = assay: Cytotoxicity against human SF268 cells after 48 hrs by SRB assay; settings: SF-268, 48 h
[11] = Cytotoxicity against human UO31 cells assessed as cell growth at 10^-6 M after 48 hrs by SRB assay; settings: UO-31, 48 h, read-out: Activity
SK-MEL-5 = assay: Cytotoxicity against human SK-MEL-5 cells assessed as cell growth at 10^-6 M after 48 hrs by SRB assay; settings: SK-MEL-5, 48 h, read-out: Activity
M14 = assay: Cytotoxicity against human M14 cells assessed as cell growth at 10^-6 M after 48 hrs by SRB assay; settings: M14, 48 h, read-out: Activity
Malme-3M = assay: Cytotoxicity against human MALME-3M cells assessed as cell growth at 10^-6 M after 48 hrs by SRB assay; settings: read-out: Activity
U-251 = assay: Cytotoxicity against human U251 cells assessed as cell growth at 10^-6 M after 48 hrs by SRB assay; settings: U-251, 48 h, read-out: Activity
SW-620 = assay: Cytotoxicity against human SW620 cells assessed as cell growth at 10^-6 M after 48 hrs by SRB assay; settings: SW-620, 48 h, read-out: Activity
NCI-H460 [12] = assay: Cytotoxicity against human NCI-H460 cells assessed as cell growth at 10^-6 M after 48 hrs by SRB assay; settings: NCI-H460, 48 h, read-out: Activity
HOP-92 [13] = assay: Cytotoxicity against human HOP92 cells assessed as cell growth at 10^-6 M after 48 hrs by SRB assay; settings: HOP-92, 48 h, read-out: Activity
T47D = assay: Cytotoxicity against human T47D cells assessed as cell growth at 10^-7 M after 48 hrs by SRB assay; settings: read-out: Activity
TK-10 = assay: Cytotoxicity against human TK10 cells assessed as cell growth at 10^-7 M after 48 hrs by SRB assay; settings: TK-10, 48 h, read-out: Activity
786-0 [14] = assay: Cytotoxicity against human 786-0 cells assessed as cell growth at 10^-7 M after 48 hrs by SRB assay; settings: 786-0, 48 h, read-out: Activity
HOP-92 [15] = assay: Cytotoxicity against human HOP92 cells assessed as growth inhibition at 10 uM after 48 hrs by SRB assay; settings: HOP-92, 48 h, read-out: GI
RPMI-8226 = assay: Cytotoxicity against human RPMI8226 cells assessed as growth inhibition at 10 uM after 48 hrs by SRB assay; settings: RPMI-8226, 48 h, read-out: GI
[16] = Cytotoxicity against human EKVX cells assessed as cell growth at 10^-5 M after 48 hrs by SRB assay; settings: read-out: Activity

SMILES: C=CCn1c(C)nc2ccc(Nc3nc(Nc4ccc(F)cc4)nc4ccccc34)cc21
- growth at 0.1 µM (UACC-62 [1]): 95%
- GI50 (HOP-62 [2]): 1.88 µM
- TGI (HOP-62 [2]): 3.76 µM
- growth at 100 µM (MDA-MB-468): -37%
- growth at 100 µM (BT-549): -61%
- growth at 100 µM (MDA-MB-231): -37%
- growth at 100 µM (DU-145): -84%
- growth at 0.1 µM (MDA-MB-435): 100%
- growth at 0.1 µM (HCT-116 [3]): 97%
- growth at 0.1 µM (HL-60(TB)): 100%
- growth at 0.01 µM [4]: 92%
- growth at 100 µM (SNB-19): -80%
- growth at 100 µM (HCT-116 [5]): -77%
- growth at 100 µM (NCI-H460 [6]): -55%
- growth at 100 µM (HOP-62 [7]): -46%
- growth at 100 µM (MOLT-4): -48%
- growth at 0.01 µM (786-0 [8]): 93%
- growth at 0.01 µM (SK-OV-3): 96%
- growth at 0.01 µM (SK-MEL-28): 95%
- growth at 0.01 µM (NCI-H23): 94%
- growth at 0.01 µM (SR): 98%
- GI50 [9]: 4.53 µM
- LC50 (concentration causing 50% net cell kill) [9]: 52.8 µM
- TGI [9]: 19.3 µM
- GI50 (OVCAR-8): 3.05 µM
- LC50 (OVCAR-8): > 100 µM
- TGI (OVCAR-8): 13.6 µM
- GI50 (UACC-62 [10]): 1.8 µM
- TGI (UACC-62 [10]): 3.7 µM
- CC50 (UACC-62 [10]; read-out: LC50 (the source's name)): 7.59 µM
- GI50 (SF-268): 8.69 µM
- LC50 (50% lethal concentration) (SF-268): 82.3 µM
- TGI (SF-268): 27.8 µM
- growth at 1 µM [11]: 83%
- growth at 1 µM (SK-MEL-5): 73%
- growth at 1 µM (M14): 94%
- growth at 1 µM (Malme-3M): 101%
- growth at 1 µM (U-251): 83%
- growth at 1 µM (SW-620): 89%
- growth at 1 µM (NCI-H460 [12]): 88%
- growth at 1 µM (HOP-92 [13]): 41%
- growth at 0.1 µM (T47D): 85%
- growth at 0.1 µM (TK-10): 104%
- growth at 0.1 µM (786-0 [14]): 98%

SMILES: C=CCn1c(C)nc2cc(Nc3nc(NCCO)nc4ccccc34)ccc21
- inhibition of growth at 10 µM (HOP-92 [15]): 40%
- inhibition of growth at 10 µM (RPMI-8226): 30%

SMILES: C=CCn1c(C)nc2cc(Nc3nc(Nc4ccc5nc(C)n(CC=C)c5c4)nc4ccccc34)ccc21
- growth at 10 µM [16]: 97.1%

SMILES: C=CCn1c(C)nc2ccc(Nc3nc(Sc4ccc(N)cc4)nc4ccccc34)cc21
- growth at 10 µM [16]: 96.5%
- inhibition of growth at 10 µM (HOP-92 [15]): 30%
- inhibition of growth at 10 µM (RPMI-8226): 40%

From ChEMBL document CHEMBL3112450, “Synthesis and in vitro antitumor evaluation of primary amine substituted quinazoline linked benzimidazole” (Bioorg Med Chem Lett, 2014)
